Laboratory results published in patent publication US6342079B1, “Primary intermediate for use in oxidative hair dyeing” (Bristol-Myers Squibb Company, priority 2000, dated 2002).

Columns and labels:
Solubility in water = format: physicochemical
[1] = Storage stability of the free base; format: physicochemical; conditions: for long term storage stability: extended storage
[2] = as described in U.S. Pat. Nos. 5,599,353 and 5,538,516; cited from earlier work

Structure (SMILES)	solubility in water (Solubility in water)	stability in free base form compared with 2-(2-hydroxyethyl)-p-phenylenediamine [1]	long term storage stability [1]	sensitization potential compared with p-phenylenediamine (Sensitization potential)	sensitization potential [2]
CC(O)c1cc(N)ccc1N (stereo not drawn) [1-(2,5-Diaminophenyl)ethanol, 1-(2,5-diaminophenyl)ethanol]	excellent	significantly more stable	excellent	much less susceptible to cause sensitization	–
Nc1ccc(N)cc1 [p-phenylenediamine]	–	–	–	–	strong
Nc1ccc(N)c(CCO)c1 [2-(2-hydroxyethyl)-p-phenylenediamine, reference compound]	–	–	not sufficiently stable	–	–
